4 compounds from patent US11560529B2, “Galactarate based metal sequestration composition” (ZestBio, Inc., priority 2019, dated 2023) can be followed below.

Data set [1] in a line: Calcium sequestration by titration with calcium chloride in presence of sodium oxalate until slight turbidity. Type of data set: physicochemical. The settings on record: 20° C.; for Calcium sequestration capacity, mg Ca^2+/g mixture: Table 4. On the procedure: Salt mixtures of galactaric acid were prepared to the desired composition by mixing sodium galactarate with either sodium borate decahydrate or sodium aluminate to a final weight of 10 grams. In an alternative preparation, galactaric acid was mixed with either sodium borate decahydrate or sodium aluminate. The resulting mixture was dissolved in a stoichiometric solution of sodium hydroxide.
The efficacy of different mixtures of galactaric acid salts and oxyanion salts in sequestering calcium at 20° C. were tested. First, salt mixtures were dissolved in deionized water at 5 g/L. Sodium oxalate stock solution, prepared at 20 g/Land pH 10, was then added to the mixture solution to yield a final concentration of 1 g/L sodium oxalate. The pH was adjusted to 10 for mixtures containing borate as the oxyanion and to 11 for mixtures containing aluminate as the oxyanion with 1M sodium hydroxide or 1M hydrochloric acid. The resulting solutions were aliquoted to 50 mL and slowly titrated with stirring by addition of a 15 g/L anhydrous calcium chloride solution at a rate of 1 mL every 3 minutes until slight turbidity was observed, indicating saturation of calcium by the chelant mixture.
The effect of pH on calcium sequestration by mixtures of galactaric acid salts and oxyanion salts at room temperature was assayed. Mixtures of 70% disodium galactarate and 30% sodium aluminate and 60% disodium galactarate and 40% sodium borate decahydrate were prepared. The resulting mixtures were dissolved in deionized water at 5 g/L and the calcium sequestering capacity was determined, as described above, with the exception that the pH was adjusted to the indicated pH with either 1M sodium hydroxide or 1M hydrochloric acid.
The calcium chelating capacity of a variety of standard compounds and mixtures was determined for 5 g/L solutions dissolved in water, as described above. In all instances the temperature was 20° C. and except where noted, the pH of solution was adjusted to 10 before determination.

Data set [2] in a line: Qualitative solubility of sodium galactarate in water-based solutions. The following applies: for solubility at 15 min / solubility at 50 min: 20 °C, thermodynamic from solid, 0.5 g in 50 mL, 20 C, stirring; for solubility at 15 min: Solubility after 15 min.; for solubility at 50 min: Solubility after 50 min. On the procedure:
To characterize the solubility of sodium galactarate, 0.5M solutions of alkali salts and non-alkali base were prepared in deionized water. To 50 mL of each solution 0.5 g of sodium galactarate, was added at 20° C. with stirring.

Setting [3] is: pH 10, aqueous buffer, 0.5M NH4OH (pH 10).

By solubility is commonly meant the concentration that dissolves in the medium under given conditions. Higher therefore signals a readily soluble substance.

Consider `O.O.O=C([O-])CN(CCN(CC(=O)O)CC(=O)O)CC(=O)[O-].[Na+].[Na+]` [EDTA, Ethylenedinitrilo Tetraacetic Acid Disodium Salt Dihydrate], for which, in data set [1] (pH 10, 5 g/L in water), the “Calcium sequestration capacity, mg Ca^2+/g mixture” value (“Calcium sequestration capacity” below) is on record as 104 mg Ca^2+/g mixture.
Consider `O=C([O-])[C@@H](O)[C@H](O)[C@H](O)[C@@H](O)C(=O)[O-].[Na+].[Na+]` [sodium galactarate], for which the “Effect of lithium ions present in solution on dissolution” value in data set [2] (20° C.) is given as “accelerated dissolution”. Also, the “Effect of sodium ions in solution (sodium chloride or sodium hydroxide) on dissolution” value in data set [2] (20° C.) is recorded as “inhibited the dissolution”. Besides, the “Solubility (in words)” value in data set [2] (20° C.) was “soluble in water-based solutions and under basic conditions”. Moreover, the solubility at 15 min in data set [2] (aqueous buffer, 0.5M LiCl) was > 10000 µg/mL; in data set [2] (aqueous buffer, 0.5M NaOH), < 10000 µg/mL; in data set [2] (setting [3]), < 10000 µg/mL; in data set [2] (saline or isotonic, 0.5M NaCl) it was < 10000 µg/mL; in data set [2] (water, Water), < 10000 µg/mL. Besides, the solubility at 50 min in data set [2] (aqueous buffer, 0.5M LiCl) was > 10000 µg/mL; in data set [2] (aqueous buffer, 0.5M NaOH), < 10000 µg/mL; in data set [2] (setting [3]) it was > 10000 µg/mL; in data set [2] (saline or isotonic, 0.5M NaCl), < 10000 µg/mL; in data set [2] (water, Water), > 10000 µg/mL. For the same compound, the “Calcium sequestration, mg Ca^2+/g mixture” value in data set [1] (Table 2, no oxyanion salt, pH not stated, 5 g/L, 1 g/L sodium oxalate) is given as 5 mg Ca^2+/g mixture.
Take `O=C([O-])CC(O)(CC(=O)[O-])C(=O)[O-].[Na+].[Na+].[Na+]` [Trisodium citrate, trisodium citrate]: the “Calcium sequestration capacity” value in data set [1] (pH 10, 5 g/L in water) is 32 mg Ca^2+/g mixture.
For `O=C([O-])CC[C@@H](C(=O)[O-])N(CC(=O)[O-])CC(=O)[O-].[Na+].[Na+].[Na+].[Na+]` [GLDA, N,N-Dicarboxymethyl glutamic acid tetrasodium salt], the “Calcium sequestration capacity” value in data set [1] (pH 10, 5 g/L in water) stood at 80 mg Ca^2+/g mixture; in data set [1] (pH 11, 5 g/L in water) it was 132 mg Ca^2+/g mixture.
